Where a name gives a salt, the structure may show the parent alone.
Assays:
human NTCP [1] = biological target: T1, human NTCP (Homo sapiens, UniProt Q14973); assay: Screening taurocholate uptake assay (96-well, [14C]taurocholate, 10 µM drug); conditions: for B-score functional assay: 10 µM drug; for position among the hits of the screen (combined ranking of both screening assays): 1280 drugs at 10 µM, TC uptake and Myrcludex B binding screens combined
T1 sequence (Q14973 1-349): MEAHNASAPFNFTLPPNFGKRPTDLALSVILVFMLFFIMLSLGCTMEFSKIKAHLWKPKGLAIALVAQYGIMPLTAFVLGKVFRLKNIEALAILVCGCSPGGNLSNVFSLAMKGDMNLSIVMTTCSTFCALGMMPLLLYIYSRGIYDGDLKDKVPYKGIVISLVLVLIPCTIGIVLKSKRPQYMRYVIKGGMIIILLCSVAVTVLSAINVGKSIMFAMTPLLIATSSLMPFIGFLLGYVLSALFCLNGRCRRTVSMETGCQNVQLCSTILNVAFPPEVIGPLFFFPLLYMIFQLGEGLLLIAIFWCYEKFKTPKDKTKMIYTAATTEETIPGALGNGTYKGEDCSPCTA

human NTCP [2] = biological target: T1, human NTCP; assay: Screening fluorescent competitive Myrcludex B-FITC binding assay (96-well, 10 µM drug); conditions: 10 µM drug
[3] = Prestwick library screen, B-score of taurocholate uptake
[4] = combined ranking from functional and binding assay B-scores
[5] = Prestwick library screen, B-score of Myrcludex B-FITC binding
[6] = combined ranking from functional and binding screening assays
[7] = screen, Myrcludex B-FITC binding
[8] = Prestwick library screen, taurocholate uptake
[9] = ranking score beside the functional and binding assay B-scores of the screen
[10] = Prestwick library screen, Myrcludex B-FITC binding
[11] = ranking over the functional and the binding screening assay
[12] = combined ranking of functional and binding screening assays
[13] = screening taurocholate uptake, B-score

Molecule	Ranking score (human NTCP [1]; [11])	B-score functional assay (human NTCP [1]; screening taurocholate uptake)	Ranking score (human NTCP [1]; [12])	further results
Br.COc1ccc2c(c1)[C@]13CCCC[C@@H]1[C@H](C2)N(C)CC3.O	–	–	–	B-score functional assay (human NTCP [1]; [3]): 0.044; Ranking score (human NTCP [1]; [4]): 928.917; B-score binding assay (human NTCP [2]; [5]): 2.674
COc1cc2c(cc1OC)C(C)NCC2.Cl (centres unmarked)	–	–	–	B-score functional assay (human NTCP [1]; [3]): 2.498; Ranking score (human NTCP [1]; [4]): 1023.83; B-score binding assay (human NTCP [2]; [5]): 0.343
Cc1ccc(Cl)c(Nc2ccccc2C(=O)[O-])c1Cl.O.[Na+]	–	–	–	Ranking score (human NTCP [1]; [6]): 386.518; B-score functional assay (human NTCP [1]; screen, taurocholate uptake): -1.621; B-score binding assay (human NTCP [2]; [7]): 0.415
Cl.Cl.Cl.Cl.Cl.NCCNCCNCCNCCN	–	–	–	B-score functional assay (human NTCP [1]; [8]): -0.035; Ranking score (human NTCP [1]; [9]): 758.136; B-score binding assay (human NTCP [2]; [10]): 0.678
CCCCC(C)(O)C/C=C/[C@H]1[C@H](O)CC(=O)[C@@H]1CCCCCCC(=O)OC (mixture of isomers) [Misoprostol]	–	–	–	B-score functional assay (human NTCP [1]; [8]): -0.231; Ranking score (human NTCP [1]; [9]): 671.728; B-score binding assay (human NTCP [2]; [10]): 0.662
CN(N=O)C(=O)N[C@H]1C(O)O[C@H](CO)[C@@H](O)[C@@H]1O (mixture of isomers) [Streptozotocin]	–	–	–	Ranking score (human NTCP [1]; [6]): 307.444; B-score functional assay (human NTCP [1]; screen, taurocholate uptake): -0.84; B-score binding assay (human NTCP [2]; [7]): -0.654
CCCCNc1c(C(=O)OCC)c(C)nc2c1cnn2CC.Cl [Tracazolate hydrochloride]	238.155	-1.912	–	–
NC[C@H]1CC[C@H](C(=O)O)CC1 [Tranexamic acid]	255.588	0.375	–	–
COc1ccc(/C=C/C(=O)Nc2ccccc2C(=O)O)cc1OC [Tranilast]	106.883	-4.178	–	–
CSc1nc2cc(Cl)c(Oc3cccc(Cl)c3Cl)cc2[nH]1 [Triclabendazole]	–	-0.202	541.575	–
Oc1cc(Cl)ccc1Oc1ccc(Cl)cc1Cl [Triclosan]	149.432	-1.77	–	–
CC[N+](CC)(CC)CCC(O)(c1ccccc1)C1CCCCC1.[Cl-] (centres unmarked) [Tridihexethyl chloride]	–	0.93	474.251	–
Cl.OC(CCN1CCCCC1)(c1ccccc1)C1CCCCC1 (centres unmarked) [Trihexyphenidyl-D,L Hydrochloride]	–	0.458	472.758	–
CCC(COC(=O)c1cc(OC)c(OC)c(OC)c1)(c1ccccc1)N(C)C (centres unmarked) [Trimebutine]	–	-0.018	579.884	–
COc1cc(C(=O)NCc2ccc(OCCN(C)C)cc2)cc(OC)c1OC [Trimethobenzamide hydrochloride]	–	–	1250.5	B-score functional assay (human NTCP [1]; [13]): 2.997
CC(CN(C)C)CN1c2ccccc2CCc2ccccc21.O=C(O)/C=C\C(=O)O (centres unmarked) [Trimipramine maleate salt]	129.248	-0.962	–	–
CN(C)CCN(Cc1ccccc1)c1ccccn1 [Tripelennamine hydrochloride]	–	-0.493	512.348	–
Cc1c(C)c2c(c(C)c1O)CCC(C)(C(=O)O)O2 (centres unmarked) [Trolox]	114.263	-2.983	–	–
CN1[C@@H]2CC[C@H]1C[C@@H](OC(=O)c1c[nH]c3ccccc13)C2 [Tropisetron HCl]	–	-1.094	543.985	–
CC(C)(C)NCC(O)c1ccccc1Cl (centres unmarked) [Tulobuterol]	–	–	1214.72	B-score functional assay (human NTCP [1]; [13]): 2.873
CC(C)C[C@H](NC(=O)[C@@H](O)[C@H](N)Cc1ccccc1)C(=O)O [Ubenimex]	–	0.218	608.5	–

Molecule	Ranking score (human NTCP [1]; [11])	B-score functional assay (human NTCP [1]; screening taurocholate uptake)	Ranking score (human NTCP [1]; [12])	further results
C[C@H](CCC(=O)O)[C@H]1CC[C@H]2[C@@H]3[C@@H](O)C[C@@H]4C[C@H](O)CC[C@]4(C)[C@H]3CC[C@]12C [Urosiol]	126.965	-4.542	–	–
CC(C)[C@H](N)C(=O)OCCOCn1cnc2c(=O)[nH]c(N)nc21 [Valacyclovir hydrochloride]	–	0.32	518.986	–
CCCc1nc(C)c2c(=O)[nH]c(-c3cc(S(=O)(=O)N4CCN(CC)CC4)ccc3OCC)nn12 [Vardenafil]	–	-0.039	546.31	–
Clc1ccc(Nc2nnc(Cc3ccncc3)c3ccccc23)cc1 [Vatalanib]	181.191	-2.979	–	–
COc1ccc(C(CN(C)C)C2(O)CCCCC2)cc1 (centres unmarked) [Venlafaxine]	–	–	–	Ranking score (human NTCP [1]; [6]): 459.852; B-score functional assay (human NTCP [1]; screen, taurocholate uptake): -0.102
O=C(CCCCCCC(=O)Nc1ccccc1)NO [Vorinostat]	–	-0.284	583.003	–
COC(=O)[C@@H]1[C@H]2C[C@H]3c4[nH]c5ccccc5c4CCN3C[C@@H]2CC[C@@H]1O [Yohimbine hydrochloride]	229.785	-1.965	–	–
CCN(C(C)=O)c1cccc(-c2ccnc3c(C#N)cnn23)c1 [Zaleplon]	–	1.229	584.018	–
CCCOc1ccccc1-c1nc2nn[nH]c2c(=O)[nH]1 [Zaprinast]	188.481	-1.838	–	–
CN(C)C/C=C(\c1ccc(Br)cc1)c1cccnc1.Cl.Cl.O [Zimelidine dihydrochloride monohydrate]	266.786	-1.216	–	–
Cc1cc(CC(=O)[O-])n(C)c1C(=O)c1ccc(Cl)cc1.[Na+] [Zomepirac sodium salt]	–	-0.802	527.712	–
CN1CCN(C(=O)OC2c3nccnc3C(=O)N2c2ccc(Cl)cn2)CC1 (centres unmarked) [Zopiclone]	176.746	-0.919	–	–
Cl.Cl.OCCN1CCN(CC/C=C2/c3ccccc3Sc3ccc(Cl)cc32)CC1 [Zuclopenthixol dihydrochloride]	243.28	-0.306	–	–
C[C@H](CCC(=O)O)[C@H]1CC[C@H]2[C@@H]3[C@H](O)C[C@@H]4C[C@H](O)CC[C@]4(C)[C@H]3CC[C@]12C [chenodeoxycholic acid]	–	–	–	position among the hits of the screen (combined ranking of both screening assays) (human NTCP [1]): ≤ 150
O=C1[C@H](CC[C@H](O)c2ccc(F)cc2)[C@@H](c2ccc(O)cc2)N1c1ccc(F)cc1 [ezetimibe, reference compound]	30.4959	-4.28	–	NTCP inhibition in the screen (in words) (human NTCP [1]; 10 µM, both screening assays): confirmed NTCP inhibition; position among the hits of the screen (combined ranking of both screening assays) (human NTCP [1]): ≤ 150
C[C@H](CCC(=O)O)[C@H]1CC[C@H]2[C@@H]3CC[C@@H]4C[C@H](O)CC[C@]4(C)[C@H]3CC[C@]12C [litocholic acid]	–	–	–	position among the hits of the screen (combined ranking of both screening assays) (human NTCP [1]): ≤ 150
C[C@H](CCC(=O)O)[C@H]1CC[C@H]2[C@@H]3[C@@H](O)C[C@@H]4C[C@H](O)CC[C@]4(C)[C@H]3CC[C@]12C [ursodeoxycholic acid, reference compound]	–	–	–	position among the hits of the screen (combined ranking of both screening assays) (human NTCP [1]): ≤ 150; position among the hits of the screen (combined ranking of both screening assays) (human NTCP [1]; listed as Ursodeoxycholic acid): ≤ 100
(S)-(-)-Cycloserine	89.398	-1.227	–	–
Colistin sulfate	–	-0.917	–	–
R(-) Apomorphine hydrochloride hemihydrate	–	–	1173.62	B-score functional assay (human NTCP [1]; [13]): 2.876
Verteporfin	33.9116	-2.252	–	–
